Entries after “also recorded” stand apart in the source; their conditions may differ. Read-outs that look alike come from different tables or passages of the source.
What was measured:
monoamine transporter = experiment: Monoamine transporter uptake activity; assay type: cell-based; settings: FIG. 23
D3 dopamine receptor [1] = target: T1, D3 dopamine receptor (Homo sapiens (Human), UniProt P35462); experiment: Current clamp recording of spontaneous action potentials in AtT-20 cells expressing D3; assay type: cell-based; settings: 100 nM dopamine or 300 nM PBZI
Target sequence in this assay (P35462 other isoform, or with tags, fused parts or gaps): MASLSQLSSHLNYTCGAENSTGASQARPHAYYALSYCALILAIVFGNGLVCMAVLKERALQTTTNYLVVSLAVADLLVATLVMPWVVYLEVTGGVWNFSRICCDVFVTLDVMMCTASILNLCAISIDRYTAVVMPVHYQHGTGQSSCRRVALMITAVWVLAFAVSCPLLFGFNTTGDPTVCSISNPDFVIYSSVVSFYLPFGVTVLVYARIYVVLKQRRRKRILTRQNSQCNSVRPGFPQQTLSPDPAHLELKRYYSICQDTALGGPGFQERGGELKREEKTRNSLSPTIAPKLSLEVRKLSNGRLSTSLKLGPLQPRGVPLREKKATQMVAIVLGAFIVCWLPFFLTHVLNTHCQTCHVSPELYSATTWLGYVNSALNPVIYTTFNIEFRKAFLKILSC
Source text: Drug solutions were delivered to cells via a multi-barreled micropipette array. The current responses were normalized to the cell capacitance, to account for variation in cell size.

Water solubility = assay type: physicochemical
D3 dopamine receptor [2] = target: T1, D3 dopamine receptor; experiment: D3 receptor tolerance and SRT: GIRK response to repeated agonist application in AtT-20 cells; assay type: cell-based; settings: 1000 nM PBZI applied simultaneously with 100 nM dopamine
Target sequence in this assay (P35462 other isoform, or with tags, fused parts or gaps): as above

D3 dopamine receptor [3] = target: T1, D3 dopamine receptor; settings: cited from earlier work
Target sequence in this assay (P35462 whole entry): as the sequence (P35462 other isoform, or with tags, fused parts or gaps) above, with S9G counted along it

D2S = D2S (Homo sapiens (Human), UniProt P14416); settings: Scheideler et al., 1997; cited from earlier work
D1-like receptors = settings: cited from earlier work
c-fos expression = settings: in vivo; cited from earlier work
Balb/c mice = experiment: Locomotor activity (open field, TruScan) in Balb/c mice
Procedure: Therefore, three different doses of the lead compound are administered and their effects on locomotor activity are determined. The dosage is determined based on the functional EC50 values and binding affinity of the lead compound from the cell-based assays described above. The compound is administered to Balb/c mice and locomotor activity is monitored using the TruScan Automated Behavioral Monitoring system (Coulborn Instruments).
A total of 12 young adult, male Balb/c mice were obtained form Charles River, Inc. (Wilmington, Mass.), and housed in groups of four in standard cages. The animals were maintained on a 12 hour light/12 hour dark cycle and permitted ad lib access to food and water. Experiments were conducted during the animal's light phase. […] For PD128907, separate groups of Balb/c mice received subcutaneous injections of saline (n=4) or 0.05 or 0.4 mg/kg PD128907 (n=4, for each). Locomotion (‘distance traveled’) scores of drug-injected animals were collapsed across 10-min intervals and for comparison purposes were normalized to saline injected animals (FIG. 12A). The experiment was conducted on three separate occasions.

Sequence of D2S (P14416 other isoform, or with tags, fused parts or gaps): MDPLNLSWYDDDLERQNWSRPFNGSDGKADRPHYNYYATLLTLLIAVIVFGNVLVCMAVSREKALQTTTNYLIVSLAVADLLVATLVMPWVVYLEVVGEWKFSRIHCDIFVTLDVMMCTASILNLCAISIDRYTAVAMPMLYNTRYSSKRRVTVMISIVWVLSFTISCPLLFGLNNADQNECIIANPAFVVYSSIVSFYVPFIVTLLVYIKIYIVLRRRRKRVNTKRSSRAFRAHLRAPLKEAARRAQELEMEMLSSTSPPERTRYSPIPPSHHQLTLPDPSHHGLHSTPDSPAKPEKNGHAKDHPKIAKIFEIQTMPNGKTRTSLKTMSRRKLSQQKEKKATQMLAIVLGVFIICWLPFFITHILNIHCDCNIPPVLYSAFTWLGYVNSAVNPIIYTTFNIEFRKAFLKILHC

Structure (SMILES)	monoamine transporter uptake activity (monoamine transporter)	inhibition of spontaneous action potentials on repeated application (D3 dopamine receptor [1])	water solubility (Water solubility)	competition with dopamine to block development of tolerance and SRT (D3 dopamine receptor [2])	Ki (D3 dopamine receptor [3]; D3, Scheideler et al., 1997, read-out: Ki)	Ki (D3 dopamine receptor [3]; source not stated, read-out: D3 dopamine receptor binding affinity Ki)	Ki (D2S)	Binding at D1-like receptors and a panel of other neurotransmitter receptors, ion channels and transporters (D1-like receptors)	c-fos expression in medial prefrontal cortex and shell region of nucleus accumbens (c-fos expression)	effect on locomotion (Balb/c mice; 1 mg/kg sc)	reduction of locomotion (Balb/c mice; 10 mg/kg sc, within 20-min)	duration of hypoactivity post-injection (Balb/c mice; PBZI 10 mg/kg sc, PD128907 0.4 mg/kg sc)	locomotor response (Balb/c mice; sc, PBZI 10 mg/kg, PD128907 0.05-0.4 mg/kg, normalized to saline)
CC(N)CCc1ccccc1Cl (stereo not shown) [ES609]	inhibits monoamine transporter uptake activity												
CCCN1CC[C@@H]2c3cc(O)ccc3CC[C@@H]21 [PBZI, (3aS,9bR)-3-propyl-1,2,3a,4,5,9b-hexahydrobenzo[e]indol-8-ol]		inhibited spontaneous action potentials during the first application and subsequent applications; also recorded: inhibited the spontaneous action potentials during the first and second treatment	water soluble	able to compete effectively with dopamine; also recorded: blocked the development of tolerance and SRT	27 nM	22 nM	1800 nM	negligible	specific increases in c-fos expression	no significant effect	approximately 90%	40 min	only elicit hypoactivity; also recorded: monophasic hypoactive locomotor response; also recorded: dose-dependent and monophasic inhibition of locomotion
